Results from ChEMBL document CHEMBL4715878 (J Med Chem, 2020).
The source made the active and inactive calls. No cut-off for these calls is given here.

Columns and labels:
BT-474 [1] = assay: Antitumor activity against human BT474 cells xenografted in athymic nude mouse assessed as tumor growth inhibition at 50 mg/kg, po administered via oral gavage for 5 times in a week for 55 days measured post last dose; format: functional, organism-based; conditions: time 55.0 day
[2] = target: T1, Receptor tyrosine-protein kinase erbB-2 (Homo sapiens, UniProt P04626); assay: Inhibition of HER2 in human BT474 cells assessed as reduction in Akt phosphorylation at 0.5 IC50 incubated for 24 to 48 hrs by western blot analysis; format: cell-based; conditions: BT-474, time 24-48 hrs
[3] = target: T1, Receptor tyrosine-protein kinase erbB-2; assay: Inhibition of HER2 in human BT474 cells assessed as reduction in Akt phosphorylation at 0.1 IC50 incubated for 24 to 48 hrs by western blot analysis; format: cell-based; conditions: BT-474, time 24-48 hrs
BT-474 [4] = assay: Induction of apoptosis in human BT474 cells assessed as increase in early apoptotic cells incubated for 72 hrs by Annexin V-FITC/PI staining based flow cytometry analysis; format: functional, cell-based; conditions: dose 0.1-5 µM
MDA-MB-231 [5] = assay: Antiproliferative activity against human MDA-MB-231 cells assessed as reduction in cell viability incubated for 72 hrs by WST8 assay; format: functional, cell-based; conditions: MDA-MB-231, 72 h
MCF7 [6] = assay: Antiproliferative activity against human MCF7 cells assessed as lethality at 10 uM after 48 hrs by SRB assay relative to control; format: functional
in vitro [7] = conditions: CD-1, mouse, microsomes
[8] = system: Panel NCI-60 (60 carcinoma cell lines); assay: Antiproliferative activity against human NCI60 cells assessed as lethality at 10 uM after 48 hrs by SRB assay relative to control; format: functional
MCF7 [9] = assay: Antiproliferative activity against human MCF7 cells assessed as reduction in cell viability incubated for 72 hrs by WST8 assay; format: functional, cell-based; conditions: MCF7, 72 h
[10] = Antiproliferative activity against human MDA-MB-231 cells assessed as lethality at 10 uM after 48 hrs by SRB assay relative to control; format: functional, MDA-MB-23
BT-474 [11] = assay: Down regulation of HER2 expression in human BT474 cells at 0.1 IC50 after 24 to 48 hrs by Western blot analysis; format: functional, cell-based; conditions: time 24-48 hrs
BT-474 [12] = assay: Down regulation of HER2 expression in human BT474 cells at 0.5 IC50 after 24 to 48 hrs by Western blot analysis; format: functional, cell-based; conditions: time 24-48 hrs
[13] = target: T1, Receptor tyrosine-protein kinase erbB-2; assay: Inhibition of HER2 in human BT474 cells assessed as reduction in Akt phosphorylation at 0.1 IC50 after 24 to 48 hrs by Western blot analysis; format: cell-based; conditions: BT-474, time 24-48 hrs
BT-474 [14] = assay: Induction of apoptosis in human BT474 cells assessed as increase in early apoptotic cells at 0.5 to 5 uM incubated for 72 hrs by Annexin V-FITC/PI staining based flow cytometry analysis relative to control; format: functional; conditions: dose 0.5-5 µM
in vitro [15] = conditions: CD-1, mouse, liver microsomes
Description: Metabolic stability in CD-1 mouse liver microsomes assessed as parent compound remaining at 100 uM measured after 60 mins by LC-MS/MS analysis

BT-474 [16] = assay: Antitumor activity against human BT474 cells xenografted in athymic nude mouse assessed as reduction in metastasis of cells at 50 mg/kg, po administered via oral gavage for 5 times per week for 55 days measured post-last dose; format: functional, organism-based; conditions: time 55.0 day
[17] = target: Epidermal growth factor receptor (Homo sapiens, UniProt P00533); conditions: 0.5 h
Description: Effect on human EGFR in presence of substrate and [gamma-32ATP] at 10 uM incubated for 30 mins by scintillation counting based radiometry assay relative to control

[18] = target: T1, Receptor tyrosine-protein kinase erbB-2; assay: Inhibition of HER2 (unknown origin) in presence of substrate incubated for 30 mins by ADP-Glo assay
BT-474 [19] = assay: Antitumor activity against human BT474 cells xenografted in athymic nude mouse assessed as tumor weight at 50 mg/kg, po administered via oral gavage for 5 times in a week for 55 days measured post last dose (reference value: 2.046 g); format: functional; conditions: time 55 day
AU565 [20] = assay: Antiproliferative activity against human AU565 cells assessed as reduction in cell viability incubated for 72 hrs by WST8 assay; format: functional, cell-based; conditions: AU565, 72 h
MDA-MB-468 [21] = assay: Antiproliferative activity against human MDA-MB-468 cells assessed as cell growth inhibition at 10 uM after 48 hrs by SRB assay relative to control; format: functional; conditions: read-out: GI
[22] = target: T1, Receptor tyrosine-protein kinase erbB-2; assay: Inhibition of HER2 in human BT474 cells assessed as reduction in Akt phosphorylation at 0.5 IC50 after 24 to 48 hrs by Western blot analysis; format: cell-based; conditions: BT-474, time 24-48 hrs
BT-474 [23] = assay: Antitumor activity against human BT474 cells xenografted in athymic nude mouse assessed as appearance of tumor fibrosis at 50 mg/kg, po administered via oral gavage for 5 times in a week for 55 days measured post-last dose by H and E staining based immunohistochemical analysis; format: functional, organism-based; conditions: time 55.0 day
MDA-MB-468 [24] = assay: Antiproliferative activity against human MDA-MB-468 cells assessed as lethality at 10 uM after 48 hrs by SRB assay relative to control; format: functional
MDA-MB-468 [25] = assay: Antiproliferative activity against human MDA-MB-468 cells assessed as cell growth inhibition after 48 hrs by SRB assay; format: functional
BT-474 [26] = assay: Antitumor activity against human BT474 cells xenografted in athymic nude mouse assessed as suppression of tumor growth by measuring decrease in number of Ki67 positive cells at 50 mg/kg, po administered via oral gavage for 5 times per week for 55 days measured post-last dose by Ki67-staining based immunohistochemistry; format: functional, organism-based; conditions: time 55.0 day
[27] = target: T1, Receptor tyrosine-protein kinase erbB-2; assay: Inhibition of HER2 in human BT474 cells assessed as reduction in Erk1/2 phosphorylation at 0.1 IC50 incubated for 24 to 48 hrs by western blot analysis; format: cell-based; conditions: BT-474, time 24-48 hrs
BT-474 [28] = assay: Antitumor activity against human BT474 cells xenografted in athymic nude mouse assessed as tumor necrosis at 50 mg/kg, po administered via oral gavage for 5 times in a week for 55 days measured post-last dose by H and E staining based immunohistochemical analysis; format: functional, organism-based; conditions: time 55.0 day
[29] = Antiproliferative activity against human BC assessed as lethality at 10 uM after 48 hrs by SRB assay relative to control; format: functional
[30] = target: T1, Receptor tyrosine-protein kinase erbB-2; conditions: Sf9, human, 0.5 h
BT-474 [31] = assay: Antitumor activity against human BT474 cells xenografted in athymic nude mouse assessed as inflammation in tumors at 50 mg/kg, po administered via oral gavage for 5 times per week for 55 days measured post-last dose by H and E staining based immunohistochemical analysis; format: functional, organism-based; conditions: time 55.0 day
BT-474 [32] = assay: Induction of apoptosis in human BT474 cells assessed as increase in late apoptotic cells at 0.5 to 5 uM incubated for 72 hrs by Annexin V-FITC/PI staining based flow cytometry analysis relative to control; format: functional; conditions: dose 0.5-5 µM
[33] = target: T1, Receptor tyrosine-protein kinase erbB-2; assay: Inhibition of HER2 in human BT474 cells assessed as reduction in Erk1/2 phosphorylation at 0.5 IC50 incubated for 24 to 48 hrs by western blot analysis; format: cell-based; conditions: BT-474, time 24-48 hrs
[34] = target: T1, Receptor tyrosine-protein kinase erbB-2; assay: Inhibition of wild-type HER2 (unknown origin) at 0.5 nM in presence of substrate incubated for 30 mins by ADP-Glo assay relative to control
[35] = target: Platelet-derived growth factor receptor alpha (Homo sapiens, UniProt P16234); assay: Effect on human recombinant N-terminal GST-tagged PDGFRalpha (550 to end residues) expressed in baculovirus infected Sf9 insect cells in presence of substrate and [gamma-32ATP] at 10 uM incubated for 30 mins by scintillation counting based radiometry assay relative to control; conditions: 0.5 h, read-out: Activity
in vitro [36] = conditions: CD-1, mouse, liver microsomes; remark: listed apart in the source
[37] = target: Receptor tyrosine-protein kinase erbB-4 (Homo sapiens, UniProt Q15303); assay: Effect on human recombinant N-terminal GST-tagged HER4 (682 to 993) expressed in baculovirus infected Sf9 insect cells in presence of substrate and [gamma-32ATP] at 10 uM incubated for 30 mins by scintillation counting based radiometry assay relative to control; conditions: 0.5 h, read-out: Activity
[38] = Antiproliferative activity against human BC assessed as cell growth inhibition at 10 uM after 48 hrs by SRB assay relative to control; format: functional; conditions: read-out: GI
BT-474 [39] = assay: Antiproliferative activity against human BT474 cells assessed as reduction in cell viability incubated for 72 hrs by WST8 assay; format: functional, cell-based; conditions: BT-474, 72 h
[40] = system: Panel NCI-60 (60 carcinoma cell lines); assay: Antiproliferative activity against human NCI60 cells assessed as mean cell growth at 10 uM after 48 hrs by SRB assay relative to control; format: functional
in vitro [41] = conditions: CD-1, mouse, liver microsomes; remark: listed apart in the source
in vitro [42] = conditions: CD-1, mouse, liver microsomes; remark: listed apart in the source
Description: Metabolic stability in CD-1 mouse liver microsomes assessed as parent compound remaining at 100 uM measured after 60 mins in presence of NADPH by LC-MS/MS analysis

MDA-MB-231 [43] = assay: Induction of apoptosis in human MDA-MB-231 cells assessed as accumulation in early apoptotic cells at 5 uM incubated for 72 hrs by Annexin V-FITC/PI staining based flow cytometry analysis; format: functional, cell-based
T47D = assay: Antiproliferative activity against human T47D cells assessed as cell growth inhibition after 48 hrs by SRB assay; format: functional; conditions: pooled result: one value given for 5 cell lines, strains, targets or settings
MCF7 [44] = assay: Induction of apoptosis in human MCF7 cells assessed as accumulation in early apoptotic cells at 5 uM incubated for 72 hrs by Annexin V-FITC/PI staining based flow cytometry analysis; format: functional, cell-based
AU565 [45] = assay: Down regulation of HER2 expression in human AU565 cells at 0.5 IC50 incubated for 72 hrs by Western blot analysis; format: functional, cell-based
MCF7 [46] = assay: Induction of apoptosis in human MCF7 cells assessed as accumulation in late apoptotic cells at 5 uM incubated for 72 hrs by Annexin V-FITC/PI staining based flow cytometry analysis; format: functional, cell-based
MDA-MB-231 [47] = assay: Induction of apoptosis in human MDA-MB-231 cells assessed as accumulation in late apoptotic cells at 5 uM incubated for 72 hrs by Annexin V-FITC/PI staining based flow cytometry analysis; format: functional, cell-based

T1 sequence (P04626 whole entry): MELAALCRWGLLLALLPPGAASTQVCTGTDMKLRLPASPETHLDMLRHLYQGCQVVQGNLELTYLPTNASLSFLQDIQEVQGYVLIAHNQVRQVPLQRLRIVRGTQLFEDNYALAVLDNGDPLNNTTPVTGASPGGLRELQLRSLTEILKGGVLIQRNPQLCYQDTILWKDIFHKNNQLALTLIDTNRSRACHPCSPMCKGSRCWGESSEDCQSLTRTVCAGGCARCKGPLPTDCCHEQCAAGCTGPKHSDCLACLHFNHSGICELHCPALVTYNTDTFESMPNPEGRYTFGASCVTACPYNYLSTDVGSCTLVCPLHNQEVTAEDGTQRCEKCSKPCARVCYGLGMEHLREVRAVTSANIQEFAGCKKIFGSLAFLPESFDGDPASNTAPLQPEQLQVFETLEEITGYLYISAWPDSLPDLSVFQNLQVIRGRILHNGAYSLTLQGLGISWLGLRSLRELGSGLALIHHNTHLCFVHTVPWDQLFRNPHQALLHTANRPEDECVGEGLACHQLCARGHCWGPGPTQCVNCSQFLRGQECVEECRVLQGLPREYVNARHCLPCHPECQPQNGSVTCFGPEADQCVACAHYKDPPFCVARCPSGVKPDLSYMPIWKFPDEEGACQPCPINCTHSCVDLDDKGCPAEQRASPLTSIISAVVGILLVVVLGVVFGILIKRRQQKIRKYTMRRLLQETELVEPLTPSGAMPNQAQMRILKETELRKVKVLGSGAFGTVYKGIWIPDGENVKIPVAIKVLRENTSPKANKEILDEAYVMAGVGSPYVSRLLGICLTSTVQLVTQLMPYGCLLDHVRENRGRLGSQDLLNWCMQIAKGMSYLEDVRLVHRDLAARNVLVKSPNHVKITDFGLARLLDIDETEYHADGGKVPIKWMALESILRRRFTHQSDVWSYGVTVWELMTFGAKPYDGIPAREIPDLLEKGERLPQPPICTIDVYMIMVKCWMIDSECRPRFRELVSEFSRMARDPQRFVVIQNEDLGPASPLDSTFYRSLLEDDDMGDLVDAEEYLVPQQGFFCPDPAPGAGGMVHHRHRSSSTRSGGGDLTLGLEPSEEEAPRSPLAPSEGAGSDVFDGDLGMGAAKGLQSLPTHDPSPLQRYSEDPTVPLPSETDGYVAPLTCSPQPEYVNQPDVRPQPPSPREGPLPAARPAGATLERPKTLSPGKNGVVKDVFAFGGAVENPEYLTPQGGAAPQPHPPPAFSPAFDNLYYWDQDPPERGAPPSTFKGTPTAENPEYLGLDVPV
Receptor tyrosine-protein kinase erbB-4, sequence (Q15303 whole entry): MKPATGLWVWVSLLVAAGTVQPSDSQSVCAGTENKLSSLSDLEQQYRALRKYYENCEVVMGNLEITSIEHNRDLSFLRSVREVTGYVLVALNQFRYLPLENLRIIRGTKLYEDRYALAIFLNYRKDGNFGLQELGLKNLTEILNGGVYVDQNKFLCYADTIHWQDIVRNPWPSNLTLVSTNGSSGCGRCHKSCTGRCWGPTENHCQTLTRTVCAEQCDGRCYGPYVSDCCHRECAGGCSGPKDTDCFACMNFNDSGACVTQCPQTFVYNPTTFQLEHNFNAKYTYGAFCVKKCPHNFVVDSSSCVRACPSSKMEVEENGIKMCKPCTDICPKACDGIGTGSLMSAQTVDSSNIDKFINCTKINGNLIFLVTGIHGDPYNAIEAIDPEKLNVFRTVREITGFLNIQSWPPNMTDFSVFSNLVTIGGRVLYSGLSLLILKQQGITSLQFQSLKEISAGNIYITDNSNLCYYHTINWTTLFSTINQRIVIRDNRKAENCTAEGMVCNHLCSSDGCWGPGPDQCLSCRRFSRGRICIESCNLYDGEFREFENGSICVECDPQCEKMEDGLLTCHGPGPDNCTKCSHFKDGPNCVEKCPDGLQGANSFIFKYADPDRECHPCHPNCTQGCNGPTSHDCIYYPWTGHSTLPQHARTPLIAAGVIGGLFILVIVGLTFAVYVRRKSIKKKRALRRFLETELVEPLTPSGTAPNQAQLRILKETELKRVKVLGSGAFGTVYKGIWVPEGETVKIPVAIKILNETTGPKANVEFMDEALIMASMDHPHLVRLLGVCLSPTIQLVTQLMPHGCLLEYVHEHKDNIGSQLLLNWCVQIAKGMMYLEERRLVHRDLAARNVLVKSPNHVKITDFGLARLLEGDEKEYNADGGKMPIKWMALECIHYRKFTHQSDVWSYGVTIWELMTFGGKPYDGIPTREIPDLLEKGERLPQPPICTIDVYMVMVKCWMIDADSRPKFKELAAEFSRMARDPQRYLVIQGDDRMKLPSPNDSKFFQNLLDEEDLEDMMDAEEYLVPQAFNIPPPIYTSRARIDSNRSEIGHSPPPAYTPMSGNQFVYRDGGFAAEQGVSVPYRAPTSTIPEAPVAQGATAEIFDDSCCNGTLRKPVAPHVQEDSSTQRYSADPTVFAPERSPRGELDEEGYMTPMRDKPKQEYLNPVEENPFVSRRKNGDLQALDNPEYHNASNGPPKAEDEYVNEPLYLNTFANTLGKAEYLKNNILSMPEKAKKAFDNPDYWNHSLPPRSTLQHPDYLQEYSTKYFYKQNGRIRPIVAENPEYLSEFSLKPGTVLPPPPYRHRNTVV
Platelet-derived growth factor receptor alpha, sequence (P16234 whole entry): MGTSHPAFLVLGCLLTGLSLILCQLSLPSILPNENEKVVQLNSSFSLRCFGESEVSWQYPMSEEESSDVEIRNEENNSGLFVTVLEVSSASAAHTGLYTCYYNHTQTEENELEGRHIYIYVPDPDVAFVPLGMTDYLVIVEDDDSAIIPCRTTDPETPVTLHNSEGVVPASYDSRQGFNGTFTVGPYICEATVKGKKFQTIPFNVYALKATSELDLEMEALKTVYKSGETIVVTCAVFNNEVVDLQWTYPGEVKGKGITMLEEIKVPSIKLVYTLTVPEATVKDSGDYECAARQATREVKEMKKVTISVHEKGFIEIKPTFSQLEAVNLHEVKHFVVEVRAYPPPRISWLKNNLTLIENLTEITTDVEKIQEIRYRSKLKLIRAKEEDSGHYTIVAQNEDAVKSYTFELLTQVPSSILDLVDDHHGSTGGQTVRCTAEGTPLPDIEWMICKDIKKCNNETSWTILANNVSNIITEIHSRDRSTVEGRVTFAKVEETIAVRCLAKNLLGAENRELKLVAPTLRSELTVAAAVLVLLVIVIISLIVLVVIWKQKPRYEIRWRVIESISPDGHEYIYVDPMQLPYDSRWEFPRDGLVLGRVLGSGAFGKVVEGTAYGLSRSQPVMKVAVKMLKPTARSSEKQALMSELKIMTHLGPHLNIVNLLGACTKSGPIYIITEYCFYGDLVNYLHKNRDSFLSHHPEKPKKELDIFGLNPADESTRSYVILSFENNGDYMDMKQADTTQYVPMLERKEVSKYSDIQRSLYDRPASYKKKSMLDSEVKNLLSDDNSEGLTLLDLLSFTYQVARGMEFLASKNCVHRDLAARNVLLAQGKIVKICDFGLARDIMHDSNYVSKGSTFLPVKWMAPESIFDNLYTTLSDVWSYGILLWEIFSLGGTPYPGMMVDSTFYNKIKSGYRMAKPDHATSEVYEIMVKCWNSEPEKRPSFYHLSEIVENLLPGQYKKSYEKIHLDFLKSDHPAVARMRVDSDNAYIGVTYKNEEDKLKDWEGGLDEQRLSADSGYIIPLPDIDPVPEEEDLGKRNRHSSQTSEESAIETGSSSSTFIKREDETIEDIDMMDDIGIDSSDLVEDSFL
Epidermal growth factor receptor, sequence (P00533 whole entry): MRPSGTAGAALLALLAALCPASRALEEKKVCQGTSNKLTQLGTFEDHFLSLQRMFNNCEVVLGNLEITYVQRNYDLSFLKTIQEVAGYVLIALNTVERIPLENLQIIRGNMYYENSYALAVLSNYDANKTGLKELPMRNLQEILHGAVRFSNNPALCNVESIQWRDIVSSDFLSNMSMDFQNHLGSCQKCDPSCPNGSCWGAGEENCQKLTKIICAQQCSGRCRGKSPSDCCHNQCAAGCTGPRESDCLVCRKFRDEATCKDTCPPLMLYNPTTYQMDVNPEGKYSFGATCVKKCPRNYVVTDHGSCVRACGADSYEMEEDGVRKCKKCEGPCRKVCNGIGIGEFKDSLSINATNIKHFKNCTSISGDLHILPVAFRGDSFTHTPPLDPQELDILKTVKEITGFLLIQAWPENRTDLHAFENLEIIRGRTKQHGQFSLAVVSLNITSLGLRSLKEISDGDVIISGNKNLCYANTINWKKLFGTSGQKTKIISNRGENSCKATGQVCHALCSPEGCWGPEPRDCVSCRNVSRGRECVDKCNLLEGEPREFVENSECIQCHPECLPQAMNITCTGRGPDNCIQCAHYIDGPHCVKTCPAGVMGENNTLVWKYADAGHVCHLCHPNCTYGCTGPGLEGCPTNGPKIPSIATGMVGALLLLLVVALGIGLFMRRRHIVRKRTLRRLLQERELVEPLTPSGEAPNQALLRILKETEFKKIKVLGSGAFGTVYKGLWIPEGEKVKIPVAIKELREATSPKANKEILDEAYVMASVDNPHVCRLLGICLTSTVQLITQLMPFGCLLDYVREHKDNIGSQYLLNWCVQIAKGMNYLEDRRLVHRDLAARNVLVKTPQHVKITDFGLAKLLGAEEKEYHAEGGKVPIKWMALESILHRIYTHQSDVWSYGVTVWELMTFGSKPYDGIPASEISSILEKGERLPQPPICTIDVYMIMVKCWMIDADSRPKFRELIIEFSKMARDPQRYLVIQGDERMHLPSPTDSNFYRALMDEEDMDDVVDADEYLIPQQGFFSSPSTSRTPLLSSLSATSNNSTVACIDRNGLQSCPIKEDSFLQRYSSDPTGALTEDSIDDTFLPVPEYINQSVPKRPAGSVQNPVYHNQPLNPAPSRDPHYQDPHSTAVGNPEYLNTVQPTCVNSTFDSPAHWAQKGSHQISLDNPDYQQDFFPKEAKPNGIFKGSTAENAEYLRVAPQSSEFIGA

SMILES: O=C(Nc1ccc2ncnc(Nc3ccc(Oc4cccc(F)c4)c(Cl)c3)c2c1)c1ccc(CNCCO)cc1
- TGI (BT-474 [1]): Active
- inhibition [2]: Active
- inhibition [3]: Active
- Activity (BT-474 [4]): Dose-dependent effect
- IC50 (MDA-MB-231 [5]): 5230 nM
- Activity (MCF7 [6]): 18%
- microsomal CLint at 1 h, 100 µM (in vitro [7]): < 9.6 µL/min/mg
- Activity [8]: 1.3%
- IC50 (MCF7 [9]): 5640 nM
- Activity [10]: 18%
- Activity (BT-474 [11]): Active
- Activity (BT-474 [12]): Active
- inhibition [13]: Active
- fold change (FC) (BT-474 [14]): <=6
- remaining at 1 h, 100 µM (in vitro [15]): 100%
- Activity (BT-474 [16]): Active
- activity at 10 µM [17]: -70%
- IC50 [18]: 12 nM
- Activity (BT-474 [19]): 0.572 g
- IC50 (AU565 [20]): 205 nM
- inhibition of growth at 10 µM (MDA-MB-468 [21]): 18.8%
- inhibition [22]: Active
- Activity (BT-474 [23]): Active
- Activity (MDA-MB-468 [24]): 18%
- GI50 (MDA-MB-468 [25]): 600 nM
- Activity (BT-474 [26]): Active
- inhibition [27]: Active
- Activity (BT-474 [28]): Active
- Activity [29]: <=78.7%
- activity at 10 µM [30]: -92%
- Activity (BT-474 [31]): Active
- Activity (BT-474 [32]): inactive
- inhibition [33]: Active
- inhibition [34]: 3%
- activity at 10 µM [35]: -4%
- half-life at 1 h, 100 µM (in vitro [36]): > 2.42 h
- activity at 10 µM [37]: -98%
- inhibition of growth at 10 µM [38]: ≤ 78.7%
- IC50 (BT-474 [39]): 204 nM
- Activity [40]: 11.85%
- CLint scaled at 1 h, 100 µM (in vitro [41]): < 38 mL/min/kg
- remaining at 1 h, 100 µM (in vitro [42]): 103%

SMILES: Cc1cccc(Oc2ccc(Nc3ncnc4ccc(NC(=O)CN5CCN(C)CC5)cc34)cc2Cl)c1
- Activity (BT-474 [4]): Dose-dependent effect
- Activity (MDA-MB-231 [43]): inactive
- IC50 (MDA-MB-231 [5]): 4500 nM
- Activity (MCF7 [6]): 18%
- Activity [8]: 1.3%
- IC50 (MCF7 [9]): 2650 nM
- Activity [10]: 18%
- GI50 (T47D): 1210 nM
- Activity (MCF7 [44]): inactive
- fold change (FC) (BT-474 [14]): <=6
- IC50 [18]: 5.4 nM
- IC50 (AU565 [20]): 135 nM
- inhibition of growth at 10 µM (MDA-MB-468 [21]): 18.8%
- Activity (AU565 [45]): inactive
- Activity (MDA-MB-468 [24]): 18%
- Activity (MCF7 [46]): inactive
- GI50 (MDA-MB-468 [25]): 400 nM
- Activity [29]: <=78.7%
- fold change (FC) (BT-474 [32]): <=3
- Activity (MDA-MB-231 [47]): inactive
- inhibition [34]: 3%
- inhibition of growth at 10 µM [38]: ≤ 78.7%
- IC50 (BT-474 [39]): 81 nM
- Activity [40]: 11.85%

SMILES: C[C@]12CC[C@H]3[C@@H](CCC4=CC(=O)CC[C@@]43C)[C@@H]1CC[C@@H]2O [TESTOSTERONE]
- microsomal CLint at 1 h, 100 µM (in vitro [7]): 279 µL/min/mg
- CLint scaled at 1 h, 100 µM (in vitro [41]): 1110 mL/min/kg
